Experimental data as given in patent US12636368B2, “Ionizable lipids for nucleic acid delivery” (Global Life Sciences Solutions Canada ULC, priority 2019, dated 2026).

Legend:
[1] = tested on: isolated primary human T cells; experiment: GFP mRNA-LNP transfection of primary human T cells, flow cytometry; assay type: cell-based; conditions: for amount of protein produced (MFI) in human T cells compared with MC3: summary; for protein expression (GFP MFI) compared with MC3: FIG. 5, CT10, N/P 8, 500 ng mRNA per 125,000 cells, 3 days after activation, 48 h
Description: Reagents were from Stemcell Technologies unless otherwise stated. Tcells were isolated from a single donor. At 48 h following lipid particle mRNA exposure, the treated T cells were harvested by transferring the cell suspensions to pre-labeled 1.5 mL tubes and centrifuged 300×g at 4 degrees C. for 10 minutes. Supernatant was removed and the pellet resuspended in PBS. An amount of 0.5 ul of BD Horizon™ Fixable Viability Stain 575V™ (BD Biosciences), was added, and the mixture incubated in the dark for 10 minutes at RT. This stain binds to amines.
The cells were centrifuged again as before, then washed twice with 1 mL of stain buffer (BSA, BD Pharminigen), and the washed pellet was diluted in 100 μl BSA. The following antibodies were added to each tube of treated cells in 2 μl volumes: CD25, CD8, CD4, (PerCP-Cy™ 5.5 Mouse Anti Human CD25, BV786 Mouse Anti-Human CD8 Clone RPA-T8, APC-Cy™7 Mouse Anti-Human CD4 Clone SK3 (all from BD Pharmingen) with the exception of the controls: in the eGFP only sample and viability control, no antibody was added. In the single stain compensation tubes, only one antibody per tube was added.
The tubes were incubated at 4 degrees C. for 30 min, whereupon […] of stain buffer was added, and the cells were centrifuged again. Cells were washed once with 1 mL of stain buffer and spun down again as in step one. Cell pellets were resuspended in 1 mL of stain buffer and added to pre-labeled flow tubes with cell strainer caps (Corning Falcon). […]
GFP MFI was measured by flow cytometry 48 hours after LNP addition. T cells were isolated from whole blood using a negative isolation procedure (EasySep™ Human T Cell Isolation Kit, Stemcell Technologies). T cells were dosed with mRNA-LNPs 3 days after activation with 500 ng of encapsulated mRNA per 125,000 cells. The LNP were CT10 compositions with an N/P of 8. Transfection efficiency (upper graph) and MFI (lower graph) were measured by flow cytometry 48 h after LNP addition.

C56BL/6 mice = experiment: hEPO expression in mice after i.v. EPO mRNA LNPs; assay type: in vivo; conditions: for protein expression in vivo compared with MC3: summary, Table 7 and Figures; for hEPO protein level compared with MC3: FIG. 9, 5-moU EPO mRNA, LM02, N/P 6, 0.5 mg/Kg, 6 h
Description: C56BL/6 mice were administered i.v doses of 0.5, 1 or 3 mg/Kg of recombinant human EPO-encoded mRNA LNPs containing ionizable lipids MC3, PNI 76, PNI 121 and PNI 127 using the LM02 composition at N/P 6; hEPO protein was measured using Quantikine® IVD® ELISA Human Erythropoietin Immunoassay protocol. Results for the 0.5 mg/Kg dosage are shown in the scatter plot of FIG. 7. Results for the 1 and 3 mg/Kg doses are shown in FIG. 8 as scatter plots of hEPO expression levels at 6 h (left) and 24 h (right).
In another study, 5-moU EPO mRNA encapsulated in LM02 LNP at an N/P ratio of 6 and a dose of 0.5 mg/Kg comprising a variety of […] ionizable lipids (PNI 336, PNI 534, PNI 535, PNI 342, PNI 321, PNI 532, PNI 538, PNI 541, PNI 325, PNI 328, PNI 329, PNI 539, PNI 540, PNI 127); along with MC3 as a control, were administered. hEPO protein was measured using ProteinSimple® Ella platform, and the rhEPO microfluidic cartridges provided by the manufacturer.
Blood from mice treated with hEPO mRNA LNP was analyzed using an automated ELISA platform “ELLA”, using Simplex™ antibody panel cartridges. Human-specific EPO and mouse-specific IL-5, IL-6, TNF-α, and IFN-γ were measured (reagents from Bio-techne). Briefly, 50 μL of sample reagent (diluted biological sample, quality control, or calibration point sample) were aliquoted into each sample inlet, and 1 mL of wash buffer was added into corresponding inlets on the cartridge. All immunoassay operations (including prime system, flow samples and split them into channels, sample incubation, wash, rehydrate and flow secondary antibody, wash, rehydrate and flow streptavidin dye conjugate, incubate, wash, scan) were processed automatically. Raw signal levels (relative fluorescence units, RFUs), mean signal values, standard deviation, and coefficient of variance (CV) for each glass nanoReactor (GNR) value are provided. RFU values are automatically backfit by the ELLA to produce an analyte concentration per analyte/sample using the manufacturer given calibration methodology.
Reagents were acquired from Quantikine, Minneapolis, MN. The assay was performed as directed on the Quantikine® IVD® ELISA Human Erythropoietin Immunoassay protocol REF DEP00 Package Insert. Briefly; Sera samples of 6 h, and/or 24 h post intravenous administration of 0.5, 1 or 3 mg/kg dose of EPO-encoded mRNA were analyzed for EPO expression analysis, and expressed as mIU/mL. To an EPO antibody pre-coated 96-well microplate, provided by the manufacturer, standards, appropriately diluted sera, and the Horseradish peroxidase (HRP)-conjugated rabbit anti-EPO polyclonal antibody and TMB (Tetramethylbenzidine) as the substrate were added and incubated for 20 minutes. Stop solution (Sulfuric Acid) was added to the wells and the plate was read at 450 nm and the concentration of EPO was calculated. The amount of colour generated is directly proportional to the amount of the conjugate bound to EPO antibody, which in turn is directly proportional to the amount of EPO in the specimen or standard. A standard curve was generated by plotting absorbance versus concentration of provided standards. Quantikine® Human Serum Controls (CEP 01, CEP 03) were used for internal controls.

[2] = tested on: isolated primary human T cells; experiment: CD19 CAR expression in primary human T cells by mRNA-LNPs; assay type: cell-based; conditions: FIG. 11; CT10, N/P 8, 48 h
Description: MRNA containing IL with CT10 composition at N/P 8 was assayed after in vitro exposure. The CAR vector pcDNA3.1 anti-CD19-h(BB Lambda)-EGFP-2nd-CAR (T7 Mut) 7661 bp was purchased from Creative BioLabs, NY, USA.
T cells were isolated from whole blood using a negative isolation procedure and T cell activation, and expansion was carried out by triple activation in ImmunoCult™ Human T Cell Expansion Media as described supra.

SMILES | transfection efficiency compared with MC3 ([1]; FIG. 1, eGFP mRNA LNP, CT10, N/P 10, 48 hours after treatment) | transfection efficiency compared with MC3 in various donors ([1]; FIG. 2, six donors, treated 7 days post activation, 48 hours) | viability of T cells compared to untreated cells ([1]; six-donor experiment, not shown) | amount of protein produced (MFI) in human T cells compared with MC3 [1] | protein expression in vivo compared with MC3 (C56BL/6 mice) | protein expression (GFP MFI) compared with MC3 [1] | CD19 CAR expression compared with PBS [2] | hEPO protein level compared with MC3 (C56BL/6 mice) | amount of protein produced (MFIs) compared with MC3 [1]
CCCCC/C=C\C/C=C\CCCCCCCC(=O)O[C@@H]1[C@@H](OC(=O)CCCCCCC/C=C\C/C=C\CCCCC)CO[C@@H]1COC(=O)CCCN(C)C (racemic) [PNI 121] | greater than MC3 | greater than those containing clinically validated MC3 | unaffected | better than MC3 | equivalent to MC3 |  |  |  | 
CCCCC/C=C\C/C=C\CCCCCCCC(=O)O[C@@H]1[C@@H](OC(=O)CCCCCCC/C=C\C/C=C\CCCCC)CO[C@@H]1COC(=O)C1CCN(C)C1 (mixture of isomers) [PNI 328] |  |  |  | better than MC3 | equivalent to MC3 | higher levels of protein expression than MC3 | greater than PBS | compare well to MC3 | 
CCCCC/C=C\C/C=C\CCCCCCCC(=O)O[C@@H]1[C@@H](OC(=O)CCCCCCC/C=C\C/C=C\CCCCC)CO[C@@H]1COC(=O)C1(C)CCN(C)C1 (mixture of isomers) [PNI 329] |  |  |  | better than MC3 | equivalent to MC3 | higher levels of protein expression than MC3 | greater than PBS | compare well to MC3 | better than MC3
CCCCC/C=C\C/C=C\CCCCCCCC(=O)O[C@@H]1[C@@H](OC(=O)CCCCCCC/C=C\C/C=C\CCCCC)CO[C@@H]1COC(=O)CCCN1CCCC1 (racemic) [PNI 539] |  |  |  |  |  |  |  | compare well to MC3 | 
